Patent US7626005B2, “Inhibitors of aminoglycoside 6′-N-acetyltransferases, compositions and uses thereof” (priority 2005, dated 2009)

How the values were obtained:
AAC(6′)-Iy = target: T1, AAC(6′)-Iy (Salmonella enteritidis, UniProt Q9R381); assay: Inhibition assay of AAC(6′)-Iy; assay type: biochemical, Salmonella enterica; conditions: for Ki: Table 2
T1 sequence (Q9R381 1-145): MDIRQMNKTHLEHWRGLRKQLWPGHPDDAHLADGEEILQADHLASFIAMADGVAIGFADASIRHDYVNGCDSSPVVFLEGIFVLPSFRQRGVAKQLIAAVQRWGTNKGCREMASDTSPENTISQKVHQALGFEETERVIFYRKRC

AAC(6′)-Ii [1] = target: T2, AAC(6′)-Ii (Enterococcus faecium, UniProt Q47764); assay: AAC6′-Ii inhibition assay (DTDP-coupled, varying AcCoA); assay type: biochemical; design: made in house; host or cells: Escherichia coli BL21; conditions: for Vm: maximal velocity from the fit of the inhibition assay; for enhanced inhibition of AAC(6′)-Ii as compared to lysine-CoA conjugates (3a and 3b): relative to 3a and 3b; for type of inhibition (in words): versus acetylCoA
Method: AAC(6′)-Ii was obtained using a previously described protocol (Wright and Ladak, 1997). The Escherichia coli strain BL21 was transformed with a pET22b expression plasmid containing the AAC(6′)-Ii gene. The bacteria were grown in Luria-Bertani (LB) media at 37° C. containing ampicillin (100 μg/mL). Expression of the protein was induced using isopropyl-β-D-thiogalactoside (IPTG). After harvesting the cells by centrifugation and washing them with a 0.85% NaCl solution, the cells were lysed by sonication. AAC(6′)-Ii was purified in a two-step process: firstly, the lysate was ran through a Q-Sepharose ion exchange column (GE Healthsciences), and secondly the AAC(6′)-Ii containing fractions were further purified using a Gentamicin agarose affinity column (BioRad).
Enzyme activity was monitored using a procedure described elsewhere (Williams and Northrop, 1978). Thus, reaction mixtures in HEPES (1 mM, pH=7.5) and containing 4,4′-dithiodipyridine (DTDP, 2 mM), aminoglycoside (200 μM), and AAC(6′)-Ii (25 μg/mL) were prepared with varying concentrations of AcCoA. Reaction volumes were typically 400 μl. The assay mixtures were preincubated for 1 min at 37° C. The initial rates V were fit to Equation S1, where [S] is the concentration of AcCoA, Km is the Michaelis-Menten constant, and Vm is the maximal velocity: [S]/V=[S]/Vm+Km/Vm (S1)
The initial reaction velocity (steady-state) in the presence of inhibitors was measured as described above. The initial rates obtained at various concentrations of inhibitor were fit to Equation S2 for competitive inhibition, to Equation S3 for […] inhibition, or to Equation S4 for uncompetitive inhibition, where [I] is the concentration of inhibitor and Ki is the inhibition constant: [S]/V=[S]/Vm+(1+[I]/Ki)Km/Vm (S2) [S]/V=(1+[I]/Ki)[S]/Vm+Km/Vm (S3) [S]/V=(1+[I]/Ki)[S]/Vm+(1+[I]/Ki)Km/Vm (S4)

AAC(6′)-Ii [2] = target: T2, AAC(6′)-Ii; conditions: read-out: Michaelis-Menten constant (Km); acetyl CoA as substrate of AAC(6′)-Ii; cited from earlier work
[3] = Ki (μM), Table 1, inhibition of AAC(6′)-Ii, varying AcCoA
[4] = inhibition constant (Ki), running text b80

T2 sequence (Q47764 1-182): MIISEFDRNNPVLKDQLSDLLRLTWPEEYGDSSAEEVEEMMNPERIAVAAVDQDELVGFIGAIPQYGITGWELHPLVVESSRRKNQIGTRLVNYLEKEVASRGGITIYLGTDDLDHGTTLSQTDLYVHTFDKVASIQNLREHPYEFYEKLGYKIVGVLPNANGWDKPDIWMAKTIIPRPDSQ

SMILES	Ki values (in words) (AAC(6′)-Iy)	Ki (AAC(6′)-Iy)	Ki values (in words) (AAC(6′)-Ii [1])	Ki (AAC(6′)-Ii [1]; AAC(6′)-Ii [Ki, (μM)], Table 2)	Ki (AAC(6′)-Ii [1]; [3])	Vm (AAC(6′)-Ii [1]; Table 1)	enhanced inhibition of AAC(6′)-Ii as compared to lysine-CoA conjugates (3a and 3b) (AAC(6′)-Ii [1])	type of inhibition (in words) (AAC(6′)-Ii [1])	type of inhibition (in words) (AAC(6′)-Ii [1]; listed as 10)	Km (AAC(6′)-Ii [2])	inhibition of AAC(6′)-Ii (in words) (AAC(6′)-Ii [1])	Ki (AAC(6′)-Ii [1]; [4])
CC(C)(COP(=O)(O)OP(=O)(O)OCC1OC(n2cnc3c(N)ncnc32)C(O)C1OP(=O)(O)O)C(O)C(=O)NCCC(=O)NCCSCC(=O)NCC1OC(OC2C(N)CC(N)C(O)C2O)C(N)C(O)C1O (centres unmarked) [Compound 10a]	near submicromolar	2.76 ± 0.4 µM	submicromolar range	0.076 ± 0.025 µM	0.076 ± 0.025 µM	0.15 ± 0.01 µM/s	500 fold	potent competitive inhibitors	competitive inhibition versus acetylCoA			
CC(=O)SCCNC(=O)CCNC(=O)[C@H](O)C(C)(C)COP(=O)(O)OP(=O)(O)OC[C@H]1O[C@@H](n2cnc3c(N)ncnc32)[C@H](O)[C@@H]1OP(=O)(O)O [acetyl CoA, Acetyl Coenzyme A]										23.5 µM		
COC(=O)C(CCCCNC(=O)CCSCCNC(=O)CCNC(=O)C(O)C(C)(C)COP(=O)(O)OP(=O)(O)OCC1OC(n2cnc3c(N)ncnc32)C(O)C1OP(=O)(O)O)NC(C)=O (centres unmarked) [Compound 3b]					≥ 30 µM			moderate competitive inhibition			moderate inhibition	30 µM
CC(C)(COP(=O)(O)OP(=O)(O)OCC1OC(n2cnc3c(N)ncnc32)C(O)C1OP(=O)(O)O)C(O)C(=O)NCCC(=O)NCCSCCC(=O)NCC1OC(OC2C(N)CC(N)C(O)C2O)C(N)C(O)C1O (centres unmarked) [Compound 10b]	near submicromolar	1.89 ± 0.3 µM	submicromolar range	0.043 ± 0.023 µM				potent competitive inhibitors			highest inhibition among all the inhibitors	
CC(C)(COP(=O)(O)OP(=O)(O)OCC1OC(n2cnc3c(N)ncnc32)C(O)C1OP(=O)(O)O)C(O)C(=O)NCCC(=O)NCCSCCCC(=O)NCC1OC(OC2C(N)CC(N)C(O)C2O)C(N)C(O)C1O (centres unmarked) [Compound 10c]	near submicromolar	2.1 ± 0.3 µM	submicromolar range	0.161 ± 0.098 µM				potent competitive inhibitors				
CC(C)(COP(=O)(O)OP(=O)(O)OCC1OC(n2cnc3c(N)ncnc32)C(O)C1OP(=O)(O)O)C(O)C(=O)NCCC(=O)NCCSCCCCC(=O)NCC1OC(OC2C(N)CC(N)C(O)C2O)C(N)C(O)C1O (centres unmarked) [Compound 10d]	near submicromolar	1.9 ± 0.3 µM		7.99 ± 2.66 µM								
CC(C)(COP(=O)(O)OP(=O)(O)OCC1OC(n2cnc3c(N)ncnc32)C(O)C1OP(=O)(O)O)C(O)C(=O)NCCC(=O)NCCSCC(=O)NCC1OC(OC2C(N)CC(N)C(O)C2OC2OC(CO)C(O)C2O)C(N)C(O)C1O (centres unmarked) [Compound 12]		1.1 ± 0.1 µM		0.119 ± 0.014 µM	0.119 ± 0.014 µM	0.14 ± 0.04 µM/s	500 fold	competitive inhibition versus acetylCoA				
COC(=O)C(CCCCNC(=O)CSCCNC(=O)CCNC(=O)C(O)C(C)(C)COP(=O)(O)OP(=O)(O)OCC1OC(n2cnc3c(N)ncnc32)C(O)C1OP(=O)(O)O)NC(C)=O (centres unmarked) [Compound 3a]					≥ 130 µM			moderate competitive inhibition			moderate inhibition	130 µM
